Results on seven compounds are retold here after PubChem BioAssay (NCI).

Among the test systems are A549 NSCLC; CAKI-1 renal; CCRF-CEM leukemia; HCC-2998 colon; HL-60(TB) leukemia; HOP-62 NSCLC; HOP-92 NSCLC; KM12 colon; M14 melanoma; MALME-3M melanoma; NCI-H23 lung; NCI-H522 lung; OVCAR-3 ovarian; PC-3 prostate; SF-268 CNS; SK-MEL-5 melanoma; TK-10 renal; U251 CNS; UACC-257 melanoma.
Holding throughout (experiment): NCI tumour cell line growth inhibition, 48 h

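Where inhibition never reached the appropriate level, the endpoint shown equals the highest concentration tested. Otherwise, values were interpolated linearly from a five-concentration, 48-hour dose response in 96-well plates. At the TGI there is no net growth.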

Take `CC[C@@H]1C(=O)OC[C@@H]1Cc1cncn1C`: the TGI with A549 NSCLC, in the test with CAKI-1 renal, in the test with CCRF-CEM leukemia, with HCC-2998 colon, in the test on HL-60(TB) leukemia and with HOP-62 NSCLC was more than 100 µM in each case. In addition, the TGI with HOP-92 NSCLC, in the test on KM12 colon, in the test on M14 melanoma, in the test on MALME-3M melanoma, in the test with NCI-H23 lung and in the test on NCI-H522 lung was more than 100 µM throughout. Further, the TGI in the test with OVCAR-3 ovarian, in the test on PC-3 prostate, with SF-268 CNS, with SK-MEL-5 melanoma, with TK-10 renal and in the test with U251 CNS was more than 100 µM each time. In addition, the TGI with UACC-257 melanoma was more than 100 µM.
`COC(=O)c1ccccc1C1CN=NC12Cc1ccccc1C2=O` (configuration not stated): the TGI with A549 NSCLC, in the test on CAKI-1 renal, in the test on CCRF-CEM leukemia, in the test with HCC-2998 colon, with HL-60(TB) leukemia and with HOP-62 NSCLC was more than 100 µM in each case. In addition, the TGI in the test with HOP-92 NSCLC, in the test with KM12 colon, in the test with M14 melanoma, with MALME-3M melanoma, in the test on NCI-H23 lung and with NCI-H522 lung was more than 100 µM in each case. Also, the TGI in the test on OVCAR-3 ovarian, in the test with PC-3 prostate, in the test with SF-268 CNS, in the test on SK-MEL-5 melanoma, with TK-10 renal and in the test with U251 CNS was more than 100 µM throughout. In addition, the TGI in the test on UACC-257 melanoma is more than 100 µM.
`COc1ccc(/C=C2\CN(C)C/C(=C\c3ccc(OC)cc3)C2=O)cc1`: the TGI in the test with A549 NSCLC, in the test with CAKI-1 renal, in the test on CCRF-CEM leukemia, in the test on HCC-2998 colon, in the test with HL-60(TB) leukemia and in the test with HOP-62 NSCLC was more than 100 µM each time. For the same compound, the TGI with HOP-92 NSCLC, in the test with KM12 colon, in the test with M14 melanoma, in the test on MALME-3M melanoma, with NCI-H23 lung and with NCI-H522 lung was more than 100 µM each time. Moreover, the TGI in the test with OVCAR-3 ovarian, in the test with PC-3 prostate, with SF-268 CNS, with SK-MEL-5 melanoma, with TK-10 renal and in the test on U251 CNS was more than 100 µM in each case.
In the case of `CCO/C=N\c1c(C#N)c(-c2ccc(Cl)cc2)cn1-c1ccc(C)cc1`, the TGI in the test on A549 NSCLC, in the test on CAKI-1 renal, in the test on CCRF-CEM leukemia, in the test with HCC-2998 colon, in the test on HL-60(TB) leukemia and in the test with HOP-62 NSCLC was more than 100 µM each time. The TGI in the test with HOP-92 NSCLC, in the test on M14 melanoma, with MALME-3M melanoma, with NCI-H23 lung, in the test on NCI-H522 lung and in the test on OVCAR-3 ovarian was more than 100 µM each time. The TGI in the test on PC-3 prostate, in the test with SF-268 CNS, in the test on SK-MEL-5 melanoma, with TK-10 renal, with U251 CNS and with UACC-257 melanoma was more than 100 µM in each case.
In the case of `CCN(CC)c1ccc2cc(C(N)=S)c(=N)oc2c1`, the TGI in the test with A549 NSCLC, in the test on CAKI-1 renal, in the test on CCRF-CEM leukemia, with HCC-2998 colon, in the test on HL-60(TB) leukemia and in the test with HOP-62 NSCLC was more than 100 µM in each case. Further, the TGI with HOP-92 NSCLC, with KM12 colon, in the test on M14 melanoma, with MALME-3M melanoma, in the test with NCI-H522 lung and in the test on PC-3 prostate was more than 100 µM throughout. Besides, the TGI with SF-268 CNS, with SK-MEL-5 melanoma, with TK-10 renal, in the test on U251 CNS and in the test on UACC-257 melanoma was more than 100 µM each time.
As to `CC(NO)/C(=N/O)c1ccco1` (configuration not stated), the TGI in the test on A549 NSCLC, in the test with CAKI-1 renal, with CCRF-CEM leukemia, in the test on HCC-2998 colon, in the test on HL-60(TB) leukemia and with HOP-62 NSCLC was more than 10 µM in each case. Also, the TGI with HOP-92 NSCLC, with KM12 colon, with M14 melanoma, in the test with MALME-3M melanoma, in the test with NCI-H23 lung and with NCI-H522 lung was more than 10 µM each time. In addition, the TGI with OVCAR-3 ovarian, with PC-3 prostate, with SF-268 CNS, in the test with TK-10 renal, in the test on U251 CNS and in the test on UACC-257 melanoma was more than 10 µM each time.
As to `O=C1c2ccccc2C(=O)N1CC1S(=O)(=O)OCCOS1(=O)=O`, the TGI in the test on A549 NSCLC, in the test on CAKI-1 renal, with CCRF-CEM leukemia, with HCC-2998 colon, in the test on HL-60(TB) leukemia and in the test on HOP-62 NSCLC was more than 100 µM each time. The TGI in the test on HOP-92 NSCLC, with M14 melanoma, with MALME-3M melanoma, in the test on NCI-H23 lung, in the test with NCI-H522 lung and with OVCAR-3 ovarian was more than 100 µM in each case. Also, the TGI in the test on PC-3 prostate, in the test on SF-268 CNS, in the test with SK-MEL-5 melanoma, in the test on TK-10 renal, in the test with U251 CNS and in the test with UACC-257 melanoma was more than 100 µM each time.
